Results published in patent US12172964B2, “Tricyclic octacationic cyclophane and its use in complexation with perlene diimide dyes” (Northwestern University, priority 2020, dated 2024).
Values joined by “and” are separate entries in the source; they are usually repeats but may differ in a detail not shown here. Equal entries are not always repeated. Marks after values point to notes of the source that are not given here.

Assays:
[1] = Binding thermodynamics of ExBox.4Cl towards PDI2 in water (fluorescence titration / ITC)
Procedure: Direct fluorescence titration experiments: […] All of the solutions were prepared in spectroscopic grade solvents and equilibrated for 24 h at room temperature before use. All of the titrations were independently duplicated—shown below is one set of titration isotherms—and all isotherm fittings were used to calculate the average Ka and ΔH with relevant standard errors. Isothermal titration was performed by TA Nano Isothermal Titration Calorimeter at 25° C. A hastelloy cell was used with an active cell volume 190 μL. The stirring speed was set at 150 rpm. Receptor and substrate solutions were prepared in Milli-Q water or MeCN and allowed to equilibrate overnight if necessary.

[2] = Isothermal titration calorimetry (ITC); assay type: binding; conditions: for ΔG: directly determined by ITC
Procedure: In all ITC experiments, ExBox.4Cl and XCage.8CF3CO2 were used in titrations. Here we use ExBox^4+ and XCage^8+ for short. All of the solutions were prepared in spectroscopic grade solvents and equilibrated for 24 h at room temperature before use. All of the titrations were independently duplicated—shown below is one set of titration isotherms—and all isotherm fittings were used to calculate the average Ka and ΔH with relevant standard errors.
Isothermal titration was performed by TA Nano Isothermal Titration Calorimeter at 25° C. A hastelloy cell was used with an active cell volume 190 μL. The stirring speed was set at 150 rpm. Receptor and substrate solutions were prepared in Milli-Q water or MeCN and allowed to equilibrate overnight if necessary. […] After subtracting the heat of dilution, the resulting data were analyzed with NanoAnalyze software using a 1:1 binding model and plotted by Origin Lab 8.6 software.

[3] = Binding constants by direct and displacement fluorescence titration; conditions: for Ka Fluorescence / ΔG: 25° C.; for ΔG: estimated from fluorescence titrations
Procedure: (§1) In all experiments shown below, ExBox.4Cl and XCage.8CF3CO2 were used in titration studies. Here we use ExBox^4+ and XCage^8+ for short. All of the solutions were prepared in spectroscopic grade solvents and equilibrated for 24 h at room temperature before use. All of the studies were independently duplicated and the corresponding isotherms were fitted to calculate the average Ka or kon values with the relevant standard errors.
Direct fluorescence titration experiments: Since the association between PDI2 and ExBox^4+ in H2O produces turn-on fluorescence, we tracked the increase of fluorescence (ex: 545 nm, em: 555 nm) of PDI2 by varying equivalents of ExBox^4+. Caffeine is not fluorescent in H2O and its association with XCage^8+ quenches the fluorescence of XCage^8+. Thus, the fluorescence quenching of XCage^8+ was tracked by the addition of Caffeine. In MeCN, the fluorescence of perylene is quenched by XCage^8+ and thus the titration was performed by tracking the fluorescence quenching of Perylene. A plot of fluorescent intensity versus receptor concentration [R]0 or substrate concentration [S]0 was fitted with a nonlinear least-squares fitting equation for 1:1 binding model to calculate the binding constant Ka using Origin Lab 8.6 software.^S14, S15
Displacement fluorescence titration experiments in H2O: A large access of the competitor caffeine (10 mM) was pre-mixed with XCage^8+ (10 μM), and the solution was equilibrated for 30 min before titration. The substrate solution of PDI2 was injected in aliquots. For each injection, the guest displacement process was relatively slow and took about 3-10 min to reach the equilibrium as monitored by the change of fluorescence (ex: 560 nm, em: 660 nm) over time. At this excitation wavelength, PDI2⊂XCage^8+ is fluorescent; XCage^8+, PDI2 and Caffeine are nonfluorescent. The association constants were calculated by fitting the titration data with a nonlinear least-squares fitting equation for displacement binding using Origin Lab 8.6 software.^S14
Displacement fluorescence titration experiments in MeCN: Perylene (250 μM) was premixed with XCage^8+ (5 μM) in MeCN, and the solution was equilibrated for 30 min before titration. The substrate solution of PDI2 was injected in aliquot amount. Between each injection, the change of fluorescence intensity was monitored over time until the fluorescence (ex: 550 nm, em: 660 nm) intensity reached a steady state. At this excitation wavelength, […] is fluorescent while XCage^8+ and PDI2 are nonfluorescent. The association constants were calculated by fitting the titration data with a nonlinear least-squares fitting equation for displacement binding using Origin Lab 8.6 software.^S14

[4] = Photophysical characterization; assay type: physicochemical
Procedure: Commercially available solvents and chemicals were purchased from Sigma-Aldrich and Fisher Scientific and used without further purification unless otherwise stated. Water was deionized, and micro filtered using Milli-Q water filtration station. Compounds PDI1^S1 and ExBox.4Cl^S2 were prepared using previously reported procedures. Thin layer chromatography (TLC) was performed on silica gel 60 F254 (E. Merck). Flash column chromatography was performed by Combiflash Rf 200 purification system. Reverse phase column chromatography was performed on Combiflash NEXTGEN 300+ system with SNAP ULTRA C18 cartridges which were purchased from Biotage. UV/Vis Absorption spectra were recorded in a glass cuvette using a UV-3600 Shimadzu spectrophotometer. Steady-state emission spectra were acquired in a quartz cuvette with an optical path-length of 10 mm containing the solution of interest using HORIBA Fluoromax4 spectrofluorometer, which was equipped with an integrating sphere for absolute photoluminescence quantum yield determination and time-correlated single-photon counting (TCSPC) module for emission decays. Nuclear magnetic resonance (NMR) spectra were recorded on Bruker AVANCE III 500 MHz spectrometer equipped with DCH CryoProbe, with working frequencies of 500 MHz for ^1H and 125 MHz for ^13C nuclei. […] High-resolution mass spectra were measured on an Agilent 6210 Time of Flight (TOF) LC-MS, using an ESI source, coupled with Agilent 1100 HPLC stack, using direct infusion (0.6 mL/min). Single crystal data were obtained on a Bruker Kappa APEX2 CCD diffractometer using Cu-Kα radiation. Detailed experimental procedures are provided below in the appropriate sections.
The fluorescence quantum yield of PDI dyes were measured by using rhodamine 6G in EtOH (Φf=0.95) as standard.^S2 The concentrations of rhodamine 6G and PDI dyes were adjusted to the absorption value 0.08 at 450 nm. The fluorescence spectrum of each solution was obtained with excitation at 450 nm, and the integrated area was used in the fluorescence quantum yield calculation. The estimated error for this method^S13 is ±10%. The fluorescent life-time was measured by Horiba Fluoromax-4 fluorometer equipped with TCSPC. Samples were excited by a laser at 374 nm, and the fluorescence decay over time was monitored at 560 nm. The fluorescent decay profiles were analyzed by a DAS6 software and matched either by a single exponential decay or double exponential decay model through mathematic fittings.

Solubility observations = assay type: physicochemical
MCF-7 cells [5] = test: Live-cell confocal microscopy; assay type: cell-based, human; conditions: MCF-7, 10 μM, 6 h
Procedure: (§2) MCF-7 cells (human breast adenocarcinoma cell line) obtained from American Type Culture Collection (ATCC, Rockville, Md., USA) was utilized for cell culture experiments. MCF-7 cells were cultured in Dulbecco's Modified Eagle's Medium (DMEM) supplemented with 10% fetal bovine serum (FBS), penicillin (100 IU/mL) and streptomycin (100 μg/mL) at 37° C. in the presence of air (95%) and carbon dioxide (5%).
(§3) MCF-7 cells (1×10^5 cells/ml, 300 μL) were plated in each well of an 8-well chamber slide (ThermoFischer Scientific) and adhered overnight. PDI2 or PDI2⊂XCage^8+ was added to each well and incubated for 6 h or 24 h. Cells were then washed with PBS, and stained with LysoTracker green (lysosome stain, 1:1000 dilution) or NucBlue™ Live ReadyProbes™ Reagent (nuclear stain, 1 drop) or Hoechst 33342 nucleic acid stain (1:2000 dilution from 10 mg/mL stock). Plated cells were imaged within a humidified chamber using a 63× oil-immersion objective on a SP5 Leica Confocal Microscope using HyD detectors and lasers or a Deltavision Core Elite with a DAPI excitation filter (381-399 nm), DAPI emission filter (em: 411-459 nm) and TRITC emission filter (em: 571-617 nm) at equivalent light levels and exposure time. Intensity of signal in cells was measured with FIJI/ImageJ software.

[6] = Binding kinetics of threading PDI2 into XCage.8CF3CO2, tracked by turn-on fluorescence; conditions: water, second order kinetic model
Procedure: as §1
Equal volume of PDI2 (1 μL, 100 μM) and XCage^8+ (1 μL, 100 μM) were mixed in H2O (1 mL) and the change of fluorescence (ex: 540 nm, em: 554 nm) was monitored over time. The resulting threading kinetics profiles were fitted using a second order kinetics model by Origin Lab 8.6 software. In MeCN, the change of fluorescence over time upon the formation of PDI2⊂XCage^8+ is too small to produce a kinetics profile as a result of the similar quantum yield between PDI2⊂XCage^8+ and PDI2.

MCF-7 cells [7] = test: Live-cell widefield fluorescence imaging using energy transfer; assay type: cell-based, human; conditions: MCF-7, 20 μM, 6 h
Procedure: as §2, §3

## c1cc2ccc1C[n+]1ccc(cc1)-c1ccc(cc1)-c1cc[n+](cc1)Cc1ccc(cc1)C[n+]1ccc(cc1)-c1ccc(cc1)-c1cc[n+](cc1)C2 [ExBox.4Cl]
[1]
  binding affinity: 2e+06 M⁻¹
  binding enthalpy: -7.4 kcal/mol

## c1cc2cccc3c4cccc5cccc(c(c1)c23)c54 [Perylene, reference compound]
[2]; MeCN, 25° C.
  Ka ITC: 3.6e+06 M⁻¹
  TΔS: 2.0 kcal mo1^−1
  ΔH: −06.9 kcal mo1^−1
  ΔG: −08.9^c kcal mo1^−1
[3]; MeCN, PDI2 by displacement of 50 molar equivalents of Perylene
  Ka Fluorescence: 5e+06 M⁻¹

## c1cc2ccc1C[n+]1ccc(cc1)-c1cc3cc(c1)-c1cc4cc(c1)-c1cc[n+](cc1)Cc1ccc(cc1)C[n+]1ccc(cc1)-c1cc(cc(c1)-c1cc(cc(c1)-c1cc[n+](cc1)Cc1ccc(cc1)C[n+]1ccc-3cc1)-c1cc[n+](cc1)C2)-c1cc[n+](cc1)Cc1ccc(cc1)C[n+]1ccc-4cc1 [XCage.8CF3CO2]
[4]; water
  blue fluorescence emission range: 350-550 nm
  fluorescence quantum yield: 10%
[2]; water, guest PDI2
  TΔΔS, loss of binding entropy compared with ExBox.4Cl: -0.5 kcal/mol
  ΔΔH, gain in binding enthalpy compared with ExBox.4Cl: -6.7 kcal/mol
Solubility observations; MeCN
  solubility: slightly soluble
Solubility observations; water and MeOH
  solubility: highly soluble
[3]; MeCN
  binding constant for Perylene, times higher than that of ExBox^4+.4PF6: about 86
[3]; water
  enhancement of binding affinity towards PDI2 compared with ExBox.4Cl (factor): 38,000

## Cn1c(=O)c2c(ncn2C)n(C)c1=O [Caffeine, reference compound]
[2]; H2O, 25° C.
  TΔS: −1.5 kcal mo1^−1
  ΔH: −8.6 kcal mo1^−1
  ΔG: −7.1^c kcal mo1^−1

## COCCOCCOCCOCCOCCOCCOCCOCCOCCOCCOCCOCCOCCOCCOCCOCCOCCOCCOCCOCCOCCOCCOCCOCCOCCOCCOCCOCCOCCOCCOCCOCCOCCOCCOCCOCCOCCOCCOCCOCCOCCOCCOCCOCCOCCN1C(=O)c2ccc3c4ccc5c6c(ccc(c7ccc(c2c37)C1=O)c64)C(=O)N(CCOCCOCCOCCOCCOCCOCCOCCOCCOCCOCCOCCOCCOCCOCCOCCOCCOCCOCCOCCOCCOCCOCCOCCOCCOCCOCCOCCOCCOCCOCCOCCOCCOCCOCCOCCOCCOCCOCCOCCOCCOCCOCCOCCOCCOC)C5=O [PDI2]
[4]; H2O
  logε: 4.48
  Φf: 0.04
  λabs: 497/534
  λem: 542/586/633
  λex: 461/502/529
  τ: 4.7 ns and 4.71 ns
[4]; MeCN
  fluorescence quantum yield: 66%
  logε: 4.91
  red shift of absorption and emission maxima of PDI2 in the presence of XCage.8CF3CO2: 23-25 nm
  Φf: 0.66
  λem: 529/568/617
  λex: 452/482/518
  τ: 4.47 ns
[4]; water
  fluorescence quantum yield: 4%
MCF-7 cells [5]
  fluorescence in brightfield-merged confocal images: no fluorescence
[2]; H2O, 25° C.
  TΔS: 0.7 kcal mo1^−1
  ΔH: −14.1 kcal mo1^−1
[2]; MeCN, 25° C.
  TΔS: 2.8 kcal mo1^−1
  ΔH: −10.2 kcal mo1^−1
[2]; water versus MeCN
  binding enthalpy in water higher than in MeCN: 4 kcal/mol
[6]
  kon: (4.8±1.1)×10^5 M^−1s^−1
[3]; H2O
  ΔG: −14.8^d kcal mo1^−1
[3]; H2O, PDI2 by displacement in presence of 1000 molar equivalents of Caffeine
  Ka Fluorescence: 7.7e+10 M⁻¹
[3]; MeCN
  ΔG: −13.0^d kcal mo1^−1
MCF-7 cells [7]
  fluorescence signal, DAPI excitation filter (ex: 381-399 nm), TRITC emission filter (em: 571-617 nm): did not show any fluorescence signal
